Measurements: US20150265682A1, “THERAPEUTIC METHODS AND COMPOSITIONS FOR TREATING DIABETES” (Orient Europharma Co., Ltd., priority 2014, published 2015)

Tests used:
[1] = tested on: normal, T1DM and T2DM mice; experiment: Plasma insulin levels before and after treatment; type: in vivo, ICR mice; details: for Plasma insulin Before-treatment: metformin 300 mgkg^−1 group; for Plasma insulin After-treatment: metformin 300 mgkg^−1 i.p.
Procedure: The 4-week-old male ICR mice were purchased from the Animal Center of the College of Medicine, National Taiwan University (Taipei, Taiwan) with delicate humane care. This animal study was conducted by following the University ethical guidelines and the ‘Guide for the Care and Use of Laboratory Animals’ published by the US National Institutes of Health (NIH publication no. 85-23, revised 1996). The animal experiments were approved by the Institutional Animal Care and Use Committee (IACUC) of the National Taiwan University (IACUC No. 20110073). Animals were housed in a room at the constant temperature, 22±1° C., with 12 hours light and dark cycles.
(§1) After three days of acclimatization, the mice had free access to a standard rodent chow (normal mice), a standard rodent chow after single […] streptozotocin (STZ) intraperitoneal injection (T1DM mice), and a fat-rich chow diet and fructose-sweetened water (T2DM mice) for 4 weeks. The induction of Type 1 DM was assessed and confirmed when the mice had plasma glucose levels ≧350 mgdL^−1, accompanied with polyuria, hyperphagia and decreased body weight. The induction Type 2 DM in the mice was assessed by measuring fasting plasma glucose levels and confirmed when plasma glucose level was ≧150 mgdL^−1 after the 4-week induction. The animals were assigned randomly into three groups, with seven animals in each group. In group I, the mice were treated with vehicle, 2% DMSO in normal saline, as the negative control. In group II, the mice were intraperitoneally treated with borapetoside A (0.1-10 mgkg^−1). In group Ill, the positive control, the mice received intraperitoneally metformin (300 mgkg^−1; Sigma Chemical Co., St. Louis, Mo., U.S.A.) or insulin (0.5 IUkg^−1; Insulin Actrapid® HM; Novo Nordisk, Denmark). In the acute study, mice under anesthesia received a single intraperitoneal administration of borapetoside A, negative control, or positive control. In the subacute study, mice received intraperitoneal administrations of borapetoside A, vehicle, or insulin twice a day for seven days.
(§2) Blood samples were collected from the orbital vascular plexus of the mice under anesthesia. Blood samples were then centrifuged at 13000 rpm for 5 min, and the plasma samples were collected and kept on ice prior to the assay. The plasma glucose concentration was measured by Glucose Kit Reagent (Biosystems S. A., Barcelona, Spain) following the manufacturer's instructions, and the insulin levels were estimated using mouse insulin ELISA kit (Mercodia AB, Uppsala, Sweden).

[2] = tested on: normal mice and mice with type 2 DM; experiment: Intraperitoneal glucose tolerance test (IPGTT); type: in vivo, ICR mice; details: normal and type 2 DM mice; borapetoside A 0.1, 1 and 10 mgkg^−1; metformin
Procedure: as §1, §2
The mice were maintained under anesthesia throughout the procedure. Glucose (2.0 gkg^−1) was administered intraperitoneally. Blood samples were collected from the orbital vascular plexus at 0, 30, 60, 120 min. The concentrations of the plasma glucose were measured, and the values of AUC were calculated accordantly.

With `CN(C)C(=N)N=C(N)N` [Metformin, metformin, reference compound] the “Plasma insulin Before-treatment” value ([1]; Normal mice) was 66.6 ± 1.3 pmol/L, the “Plasma insulin After-treatment” value ([1]; Normal mice) was 72 ± 3.1 pmol/L and the “Plasma insulin Before-treatment” value ([1]; T1DM mice) was 22.4 ± 0.4 pmol/L. For the same compound, the “Plasma insulin After-treatment” value ([1]; T1DM mice) was 22.7 ± 0.3 pmol/L, the “Plasma insulin Before-treatment” value ([1]; T2DM mice) was 148.1 ± 15.2 pmol/L and the “Plasma insulin After-treatment” value ([1]; T2DM mice) was 182.0 ± 27.7 pmol/L. For the same compound, the “increase of plasma glucose level at 30 min in IPGTT, compared to the vehicle group” value [2] was “significantly suppressed”.
